Structures are written as SMILES.

These results are taken from patent US20260062414A1, “NOVEL COCRYSTALS OF METHYLXANTHINES, THEIR POLYMORPHS AND PROCESS THEREOF” (FERTIS INDIA PVT LTD, priority 2022, published 2026).

The series is described as follows: Dissolution studies of cocrystals. As to conditions: for Release rate of active ingredient compared to pure form: dissolution study, cocrystal vs pure methylxanthine. As to the method: In an embodiment, the dissolution study of the cocrystals of Methylxanthines with the coformers Pterostilbene and Resveratrol were evaluated.

Take `COc1cc(/C=C/c2ccc(O)cc2)cc(OC)c1.Cn1c(=O)c2c(ncn2C)n(C)c1=O` [CA:PB, Caffeine: Pterostilbene]: the “Bioavailability compared to pure form” value is listed as “more bioavailable” and the “Release rate of active ingredient compared to pure form” value (“Release rate … compared to pure form” for short) was “slow-release rate”.
Turning to `COc1cc(/C=C/c2ccc(O)cc2)cc(OC)c1.COc1nc2c(c(=O)n1C)n(C)c(=O)n2C` [ML:PB, Methylliberine: Pterostilbene], the “Bioavailability compared to pure form” value is “more bioavailable”, the “Solubility compared to pure form” value is reported as “lower solubility” and the “Release rate … compared to pure form” value is “slow-release rate”.
In the case of `COc1cc(/C=C/c2ccc(O)cc2)cc(OC)c1.Cn1c(=O)[nH]c2ncn(C)c2c1=O` [PX:PB, Paraxanthine: Pterostilbene (1:1) Cocrystal], the “Bioavailability compared to pure form” value is reported as “more bioavailable”, the “Solubility compared to pure form” value is “lower solubility” and the “Release rate … compared to pure form” value was “slow-release rate”.
For `COc1cc(/C=C/c2ccc(O)cc2)cc(OC)c1.Cn1cnc2c1c(=O)[nH]c(=O)n2C` [TB:PB, Theobromine: Pterostilbene (1:1) Cocrystal], the “Bioavailability compared to pure form” value is “better bioavailability” and the “Solubility compared to pure form” value was “improved solubility”.
For `COc1cc(/C=C/c2ccc(O)cc2)cc(OC)c1.Cn1c(=O)c2c(n(C)c1=O)n(C)c(=O)n2C` [TC:PB, Theacrine: Pterostilbene], the “Bioavailability compared to pure form” value is recorded as “more bioavailable”, the “Solubility compared to pure form” value is recorded as “lower solubility” and the “Release rate … compared to pure form” value is “slow-release rate”.
Consider `Cn1c(=O)c2[nH]cnc2n(C)c1=O.Oc1ccc(/C=C/c2cc(O)cc(O)c2)cc1` [TP:RS, Theophylline: Resveratrol (1:1) Cocrystal], for which the “Bioavailability compared to pure form” value is “more bioavailable”, the “Solubility compared to pure form” value is reported as “lower solubility” and the “Release rate … compared to pure form” value is given as “slow-release rate”.
